Measured values taken from PubChem BioAssay AID248 (DTP/NCI, 2004).
Values joined by “and” are separate entries in the source; they are usually repeats but may differ in a detail not shown here. Equal values may be shown once. Toxic doses and inconclusive results are not listed. Rule as the data show it: active = T/C of 150% or more; inactive = T/C below 125%.

Test system: L1210 leukemia ip in BDF1 mice, survival T/C
Test: NCI In Vivo Anticancer Drug Screen. Data for tumor model L1210 Leukemia (intraperitoneal) in B6D2F1 (BDF1) mice
Details: endpoint: mean survival time, higher = longer survival
In short: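 Tumor was transplanted into mice, which were then dosed with test compound or vehicle alone. Survival was recorded for each group, and the treated figure was expressed relative to the control figure.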

[1] = dose: 12.5 mg/kg/injection, schedule: Q01DX009 (ip), vehicle: saline with Tween-80
[2] = dose: 25.0 mg/kg/injection, schedule: Q01DX009 (ip), vehicle: saline with Tween-80
[3] = dose: 50.0 mg/kg/injection, schedule: Q01DX009 (ip), vehicle: saline with Tween-80
[4] = dose: 100.0 mg/kg/injection, schedule: Q01DX001 (ip), vehicle: saline with Tween-80
[5] = dose: 200.0 mg/kg/injection, schedule: Q01DX001 (ip), vehicle: saline with Tween-80
[6] = dose: 100.0 mg/kg/injection, schedule: Q01DX009 (ip), vehicle: Klucel (hydroxypropylcellulose) (HPC)
[7] = dose: 100.0 mg/kg/injection, schedule: Q04DX003 (ip), vehicle: Klucel (hydroxypropylcellulose) (HPC)
[8] = dose: 200.0 mg/kg/injection, schedule: Q01DX009 (ip), vehicle: Klucel (hydroxypropylcellulose) (HPC)
[9] = dose: 200.0 mg/kg/injection, schedule: Q04DX003 (ip), vehicle: Klucel (hydroxypropylcellulose) (HPC)
[10] = dose: 400.0 mg/kg/injection, schedule: Q01DX009 (ip), vehicle: Klucel (hydroxypropylcellulose) (HPC)
[11] = dose: 400.0 mg/kg/injection, schedule: Q04DX003 (ip), vehicle: Klucel (hydroxypropylcellulose) (HPC)
[12] = dose: 25.0 mg/kg/injection, schedule: Q04DX003 (ip), vehicle: saline with Tween-80
[13] = dose: 50.0 mg/kg/injection, schedule: Q04DX003 (ip), vehicle: saline with Tween-80
[14] = dose: 100.0 mg/kg/injection, schedule: Q04DX003 (ip), vehicle: saline with Tween-80
[15] = dose: 100.0 mg/kg/injection, schedule: Q01DX001 (ip), vehicle: Klucel (hydroxypropylcellulose) (HPC)
[16] = dose: 200.0 mg/kg/injection, schedule: Q01DX001 (ip), vehicle: Klucel (hydroxypropylcellulose) (HPC)
[17] = dose: 400.0 mg/kg/injection, schedule: Q01DX001 (ip), vehicle: Klucel (hydroxypropylcellulose) (HPC)
[18] = dose: 100.0 mg/kg/injection, schedule: Q04DX002 (ip), vehicle: Klucel (hydroxypropylcellulose) (HPC)
[19] = dose: 200.0 mg/kg/injection, schedule: Q04DX002 (ip), vehicle: Klucel (hydroxypropylcellulose) (HPC)
[20] = dose: 400.0 mg/kg/injection, schedule: Q04DX002 (ip), vehicle: Klucel (hydroxypropylcellulose) (HPC)
[21] = dose: 100.0 mg/kg/injection, schedule: Q01DX009 (ip), vehicle: saline with Tween-80
[22] = dose: 200.0 mg/kg/injection, schedule: Q01DX009 (ip), vehicle: saline with Tween-80
[23] = dose: 400.0 mg/kg/injection, schedule: Q01DX009 (ip), vehicle: saline with Tween-80
[24] = dose: 50.0 mg/kg/injection, schedule: Q01DX001 (ip), vehicle: carboxymethylcellulose (CMC)
[25] = dose: 100.0 mg/kg/injection, schedule: Q01DX001 (ip), vehicle: carboxymethylcellulose (CMC)

Measured: T/C

COC(=O)CNC(=O)C(Cc1ccc(O)cc1)NC(=O)OC(C)(C)C (stereo not drawn)
inactive: dose: 50.0 mg/kg/injection, schedule: Q01DX005 (ip), vehicle: saline 95 % of control | dose: 100.0 mg/kg/injection, schedule: Q01DX005 (ip), vehicle: saline 105 % of control | dose: 200.0 mg/kg/injection, schedule: Q01DX005 (ip), vehicle: saline 96 % of control | dose: 400.0 mg/kg/injection, schedule: Q01DX005 (ip), vehicle: saline 98 % of control

CCOC(=O)Nc1cc2c(c(NC(=O)OCC)n1)N=C(CN(C)c1ccccc1)CN2
inactive: [1] 100 % of control | [2] 105 % of control | [3] 114 % of control | dose: 88.0 mg/kg/injection, schedule: Q01DX001 (ip), vehicle: saline with Tween-80 105 % of control | [4] 106 % of control | dose: 133.0 mg/kg/injection, schedule: Q01DX001 (ip), vehicle: saline with Tween-80 97 % of control | [5] 113 % of control

CCCCCCCCCCCCCCCC(C)(C)O
inactive: [6] 102 % of control | [7] 96 % of control | [8] 100 % of control | [9] 96 % of control | [10] 102 % of control | [11] 101 % of control

CC1CC(C)(C)N=C(C(Cc2ccccc2)CC(O)c2ccccc2)O1 (stereo not drawn)
inactive: [12] 94 % of control | [13] 92 % of control | [14] 86 % of control and 90 % of control

C=C1c2[nH]c3ccccc3c2C2C(CC)C1CCN2C (stereo not drawn)
inactive: dose: 30.0 mg/kg/injection, schedule: Q01DX Z (ip), vehicle: olive oil, sesame oil, peanut oil 102 % of control | dose: 50.0 mg/kg/injection, schedule: Q01DX Z (ip), vehicle: olive oil, sesame oil, peanut oil 98 % of control

CC(C)NNC(=O)c1ccc(N)cc1
inactive: dose: 100.0 mg/kg/injection, schedule: Q04DX003 (ip), vehicle: saline 105 % of control | dose: 200.0 mg/kg/injection, schedule: Q04DX003 (ip), vehicle: saline 113 % of control | dose: 400.0 mg/kg/injection, schedule: Q04DX003 (ip), vehicle: saline 108 % of control

Nc1ccc2c(c1)C(=O)c1ccccc1-2
inactive: [15] 88 % of control | [16] 95 % of control | [17] 97 % of control

C=C1C(O)CC2CC1C2(C)C (stereo not drawn)
inactive: [14] 92 % of control | dose: 200.0 mg/kg/injection, schedule: Q04DX003 (ip), vehicle: saline with Tween-80 92 % of control

COc1ccc(C(=O)NCc2cccs2)cc1
inactive: [18] 91 % of control | [19] 102 % of control | [20] 97 % of control

COc1ccc(COC(=O)Nc2ccc(Br)cc2)cc1
inactive: [6] 101 % of control | [8] 98 % of control | [10] 103 % of control

CC(=O)COc1ccccc1
inactive: [6] 108 % of control | [7] 100 % of control | [8] 110 % of control | [9] 97 % of control | [10] 108 % of control | [11] 95 % of control

CCOC(=O)N1CCN(C(=S)[S-])CC1.CCOC(=O)N1CCN(C(=S)[S-])CC1.[Zn]
inactive: dose: 150.0 mg/kg/injection, schedule: Q01DX001 (ip), vehicle: saline 86 % of control | dose: 300.0 mg/kg/injection, schedule: Q01DX001 (ip), vehicle: saline 87 % of control

Cc1ccc(C)c2c1CCCC2=O
inactive: [1] 110 % of control | [2] 107 % of control and 114 % of control | [3] 98 % of control and 106 % of control | [21] 88 % of control | [22] 93 % of control | [23] 96 % of control

S=c1sc2ccccc2n1CCNc1ccccc1
inactive: [24] 96 % of control | [25] 100 % of control | dose: 200.0 mg/kg/injection, schedule: Q01DX001 (ip), vehicle: carboxymethylcellulose (CMC) 100 % of control | dose: 400.0 mg/kg/injection, schedule: Q01DX001 (ip), vehicle: carboxymethylcellulose (CMC) 89 % of control

Cc1cccc(C(O)c2cnc(C)n2Cc2ccccc2)c1 (stereo not drawn)
inactive: [15] 90 % of control | [6] 100 % of control and 86 % of control | [18] 108 % of control and 89 % of control | [7] 92 % of control | [16] 100 % of control | [8] 97 % of control and 89 % of control | [19] 96 % of control | [9] 96 % of control | [17] 97 % of control | [10] 93 % of control and 97 % of control | [20] 93 % of control and 101 % of control | [11] 94 % of control

Clc1ncc(Br)c(Cl)n1
inactive: dose: 6.25 mg/kg/injection, schedule: Q01DX009 (ip), vehicle: Klucel (hydroxypropylcellulose) (HPC) 102 % of control | dose: 12.5 mg/kg/injection, schedule: Q01DX009 (ip), vehicle: Klucel (hydroxypropylcellulose) (HPC) 102 % of control | dose: 25.0 mg/kg/injection, schedule: Q01DX009 (ip), vehicle: Klucel (hydroxypropylcellulose) (HPC) 101 % of control | dose: 100.0 mg/kg/injection, schedule: Q04DX003 (ip), vehicle: other 119 % of control | dose: 200.0 mg/kg/injection, schedule: Q04DX003 (ip), vehicle: other 90 % of control

O=C1/C(=C/c2cccc([N+](=O)[O-])c2)CCc2ccccc21
inactive: dose: 100.0 mg/kg/injection, schedule: Q04DX003 (ip), vehicle: acetone 109 % of control | dose: 200.0 mg/kg/injection, schedule: Q04DX003 (ip), vehicle: acetone 101 % of control | dose: 400.0 mg/kg/injection, schedule: Q04DX003 (ip), vehicle: acetone 96 % of control

CSc1ccccc1N=Cc1cc(Cl)ccc1O
inactive: [4] 90 % of control

O=C(NC/C(Br)=C/Br)Nc1c(Cl)cccc1Cl
inactive: [15] 94 % of control | [7] 96 % of control | [16] 91 % of control | [9] 89 % of control | [17] 91 % of control | [11] 93 % of control

CCOC(=O)C(C#N)C(C)CC#N (stereo not drawn)
inactive: [21] 119 % of control | [22] 117 % of control | [23] 108 % of control

N#CC1(C#N)C2C=CC(C3CCC=C32)C1(C#N)C#N (stereo not drawn)
inactive: [1] 109 % of control | [2] 96 % of control | [12] 104 % of control | [3] 111 % of control | [13] 95 % of control | [14] 93 % of control

NCC1=NCCN1
inactive: dose: 25.0 mg/kg/injection, schedule: Q04DX002 (ip), vehicle: saline 93 % of control | dose: 50.0 mg/kg/injection, schedule: Q04DX002 (ip), vehicle: saline 97 % of control | dose: 100.0 mg/kg/injection, schedule: Q04DX002 (ip), vehicle: saline 101 % of control | dose: 200.0 mg/kg/injection, schedule: Q04DX002 (ip), vehicle: saline 93 % of control

CCOC(=O)C(C(=O)OCC)C1c2ccccc2C(=NO)c2ccccc21 (stereo not drawn)
inactive: dose: 50.0 mg/kg/injection, schedule: Q01DX009 (ip), vehicle: Klucel (hydroxypropylcellulose) (HPC) 96 % of control | [6] 98 % of control | [7] 88 % of control | [8] 94 % of control | [9] 92 % of control

CNC(=O)Oc1ccc(Br)cc1Br
inactive: [6] 101 % of control | [8] 100 % of control

CC(=O)NCCO
inactive: [4] 100 % of control | [5] 105 % of control | dose: 400.0 mg/kg/injection, schedule: Q01DX001 (ip), vehicle: saline with Tween-80 100 % of control

CC1(c2ccccc2)CC(c2ccccc2)=C(C#N)C(=O)N1 (stereo not drawn)
inactive: dose: 100.0 mg/kg/injection, schedule: Q01DX001 (ip), vehicle: saline 98 % of control | dose: 200.0 mg/kg/injection, schedule: Q01DX001 (ip), vehicle: saline 91 % of control | dose: 400.0 mg/kg/injection, schedule: Q01DX001 (ip), vehicle: saline 104 % of control

CN(CCCl)Cc1ccc(-c2c3ccccc3cc3c2ccc2ccccc23)cc1
inactive: dose: 25.0 mg/kg/injection, schedule: Q01DX001 (ip), vehicle: carboxymethylcellulose (CMC) 97 % of control | [24] 89 % of control | [25] 92 % of control

CCCCCCCN(CCCCCCC)CC(O)c1cc2ccc(Cl)cc2nc1-c1ccc(Cl)cc1 (stereo not drawn)
inactive: [6] 87 % of control | [8] 97 % of control | [10] 87 % of control
